According to patent US9345705B2, “Compositions and methods for treating cancer” (Merck Sharp & Dohme Corp., priority 2011, dated 2016):
Where two headings read alike, the source gives them in different places.

What was measured:
LoVo xenograft tumors [1] = assay: Pharmacodynamic DNA damage analysis (Western blot pCHK1 S345, IHC γH2AX) in xenograft tumors; type: in vivo, CD-1 Nu/Nu female mice; details: 2 days BID, 60 mpk each agent
Method: CD-1 Nu/Nu female mice aged 5-6 weeks (Charles River Laboratories) were inoculated with 5×10^6 LoVo cells in 100 uL (1:1 Matrigel:PBS) subcutaneously (S.C.) into the right flank. […] Three animals from each group were sacrificed via carbon dioxide inhalation at 2 hours, 24 hours, or 48 hours after the 4th and final dose of the 2 day BID schedule. Tumors were resected, split roughly in half, and stored in 10% formalin for immunohistochemistry (IHC) or at −80° C. for Western blot analysis.

LoVo cells = assay: DNA damage (γH2AX) by flow cytometry in LoVo cells; type: cell-based, human
Method: A2058 melanoma cancer cells were treated with 125 nM MK-1775, 150 nM MK-8776, or both. HT-29 colorectal cancer cells were treated with 125 nM MK-1775, 300 nM MK-8776, or both. LoVo colorectal cancer cells were treated with 40 nM MK-1775, 75 nM MK-8776, or both. […] FIG. 2B depicts DNA damage and was scored at either 24 or 48 hours as the percentage of cells positive for the DNA damage marker γH2AX (histone H2AX phosphorylated at serine 139) determined by flow cytometry.

[2] = tested on: A2058 melanoma, HT-29 colorectal and LoVo colorectal cancer cells; assay: Growth assay (ATP ViaLight) at concentrations with negligible single-agent effect; type: cell-based, human
Method: A2058 melanoma cancer cells were treated with 125 nM MK-1775, 150 nM MK-8776, or both. HT-29 colorectal cancer cells were treated with 125 nM MK-1775, 300 nM MK-8776, or both. LoVo colorectal cancer cells were treated with 40 nM MK-1775, 75 nM MK-8776, or both. FIG. 2A depicts cell proliferation and was scored at either 48 or 72 hours as the percentage of ATP ViaLight® (ViaLight® Assay, Lonza, Basel, Switzerland) of treated samples relative to DMSO treated controls.

LoVo xenograft tumors [3] = assay: Anti-tumor efficacy in xenograft model of human colorectal cancer; type: in vivo, CD-1 Nu/Nu female mice; details: study day 18, 3 cycles of 2 day BID dosing, 50 mpk, single agent plus vehicle
Method: The anti-tumor efficacy of this combination was assessed in a xenograft model of human colorectal cancer. CD-1 Nu/Nu female mice aged 5-6 weeks (Charles River Laboratories) were inoculated with 5×10^6 LoVo cells in 100 uL (1:1 Matrigel:PBS) S.C. into the right flank. […] Tumor volume and body weights were recorded bi-weekly.

[4] = tested on: A2058 melanoma cancer cell line; assay: Cell proliferation by ATP vialight, 9-point titrations with fixed concentrations of the complementary drug; type: cell-based, human; details: for EC50: Homo sapiens, 72 hours
Method: To determine the ability of each drug to potentiate the activity of the other, Applicants performed 9-point titrations of each in the added presence of increasing, but fixed, concentrations of the complimentary drug (FIGS. 1A and 1B). Analysis of cell proliferation was determined after 72 hours (3 days) incubation with either DMSO (as control) or the indicated concentrations of MK-1775 and MK-8776 by ATP vialight (Promega). […] EC50 concentrations were calculated (GraphPad Prism, GraphPad Software, San Diego, Calif.).
Inhibition of WEE1 and CHK1 lead to aberrant CDK1 and/or CDK2 activity, and without wishing to be bound by any theory, this is thought to underlie the potential of either target for having deleterious effects on actively dividing tumor cells. Because of the possible overlap in the MK-1775 and MK-8776 mechanisms of action, Applicants carried out […] synergy experiments.

Compound	pCHK1 S345 by Western blot at 2 hours after the final dose (LoVo xenograft tumors [1])	pCHK1 S345 effect at 24 hours after the final dose (LoVo xenograft tumors [1])	cells with detectable γH2AX (LoVo cells; LoVo cells, 24 hour treatment, 40 nM MK-1775, 75 nM MK-8776, or both)	effect in growth assay, single agent ([2]; A2058: 125 nM MK-1775, 150 nM MK-8776, HT-29: 125 nM, 300 nM, LoVo: 40 nM, 75 nM, 48 or 72 hours)	T/C (LoVo xenograft tumors [3])	reduction of MK-1775 EC50 ([4]; A2058 cells, addition of 150 nM MK-8776)	EC50 ([4]; A2058 cells, MK-1775 alone, read-out: average EC50 of growth inhibition)	EC50 ([4]; A2058 cells, addition of 150 nM MK-8776, read-out: average MK-1775 EC50 with added MK-8776)	shift in the MK-1775 response curve (sham synergy experiment) ([4]; MK-1775 titrated over 75 nM of the labelled drug)	cells with detectable γH2AX (LoVo cells)	effect in growth assay, single agent [2]	effect on A2058 proliferation by itself [4]	maximum cell growth inhibition at the highest concentration of MK-8776 [4]	shift in the MK-1775 response curve (sham synergy experiment) [4]	shift of MK-8776 EC50 curves [4]	shift of the MK-1775 response curve caused by added drug [4]
C=CCn1c(=O)c2cnc(Nc3ccc(N4CCN(C)CC4)cc3)nc2n1-c1cccc(C(C)(C)O)n1 [MK-1775, 2-allyl-1-[6-(1-hydroxy-1-methylethyl)pyridin-2-yl]-6-{[4-(4-methylpiperazin-1-yl)phenyl]amino}-1,2-dihydro-3H-pyrazolo[3,4-d]pyrimidin-3-one]	transient increase	lost	6%	negligible effect	42%	5 fold	225 nM	45 nM	did not cause a shift in the response curve							
Cn1cc(-c2cnn3c(N)c(Br)c([C@@H]4CCCNC4)nc23)cn1 [MK-8776, (R)-(−)-6-Bromo-3-(1-methyl-1H-pyrazol-4-yl)-5-piperidin-3-yl-pyrazolo[1,5-a]pyrimidin-7-ylamine]	transient increase	lost			52%					5%	negligible effect	do not effect A2058 proliferation	dose-dependent increase	robust potency shift	leftward shifts in EC50 curves	leftward shift of the MK-1775 response curve
